Data from patent US10568819B2, “Skin enhancing compositions and methods” (Sytheon Limited, priority 2016, dated 2020).
pIC50: −log10 of the molar value. Read-outs that look alike come from different tables or passages of the source.

Assays:
COL11A1 = assay: DNA microarray gene expression, COL11A1; assay type: cell-based
From the text: (§1) In light of the efficacy of the aryl alkanones ire addressing many of the molecular/biomolecular processes damaged by UV exposure, a study was undertaken to assess whether these compounds would also be effective in addressing symptoms associated with non-UV induced skin aging including chronological aging as well as disease conditions that likewise adversely affect skin processes. The studies conducted involves DNA microarray, PCR array, cell culture, enzyme inhibitory activity.

human dermal fibroblasts = assay: UVA-induced mitochondrial damage measured by ATP production (Mitochondrial ToxGlo Assay); assay type: cell-based; conditions: 24 h pre-incubation
Procedure: (§2) The study was conducted in accordance with the protocols of Berridge et al, (M V Berridge & A S Tan, Characterization of the cellular reduction of 3-(4,5-dimethylthiazol-2-yl)-2,5-diphenyltetrazolium bromide (MTT): subcellular localization, substrate dependence, and involvement of mitochondrial electron transport in MTT reduction, Arch. Biochem. Biophys. 303:474-482, 1993) and Voigt (W Voigt, Sulforhodamine B assay and chemosensitivity, Methods Mol Med, 110:39-48, 2005). Cellular metabolism is determined using the MTT assay to measure the activity of mitochondrial dehydrogenases, such as succinate dehydrogenase, which are implicated in the respiratory electron transport chain in mitochondria [M V Berridge & Tan Biochem Biophys, 303:474-482, 1993]. Additionally, the samples were subject to the Mitochondrial ToxGlo Assay (Promega Technical Manual, G8000 and G8001), which is a cell-based assay method that has been developed to quantify potential mitochondrial dysfunction as a result of xenobiotic exposure, using a sequential-addition, multiplexed chemistry.
(§3) Table 8 presents the result on the effect of UVA radiation on cell metabolism 3 hours after irradiation. As indicated, Compound 1 improves cell metabolism, even at a very low use concentration. Table 9 presents the effect of 24 hour pre-incubation on UVA-induced mitochondrial damage measured by ATP production in human dermal fibroblasts. […] Finally. Table 10 presents the effect of 24 hour pre-incubation on UVA-induced plasma membrane disruption in human dermal fibroblasts. As indicated, Compound 1 almost completely reversed plasma membrane disruption, again at a very low use concentration.

COL3A1 = assay: DNA microarray gene expression, COL3A1; assay type: cell-based
From the text: as §1

MSH6 = assay: DNA microarray gene expression, MSH6; assay type: cell-based
From the text: as §1

COL6A1 = assay: PCR array gene expression, COL6A1; assay type: cell-based
From the text: as §1

FMOD = assay: DNA microarray gene expression, FMOD; assay type: cell-based
From the text: as §1

FBLN1 = assay: DNA microarray gene expression, FBLN1; assay type: cell-based
From the text: as §1

MMP-1 enzyme = target: T1, MMP-1 enzyme (Homo sapiens, UniProt P03956); assay: MMP-1 inhibition; assay type: biochemical; conditions: read-out: Inhibitory concentration (IC50), MMP-1
T1 construct: purchased Anaspec
Procedure: (§4) Another study was conducted in which the elastin and MMP activity of Compound 1 was evaluated. The methodology for the study of MMP-1 and MMP-3 activity was as follows: • A 0.1 g sample of Compound 1 was dissolved in 1 ml DMSO, then it was diluted 100× with Tris buffer (50 mM Iris pH 7.5, 150 mM NaCl, 2 mM CaCl2, 5μ ZnO4, 0.01% Brij-35) to make a stock solution. For the analysis, different concentrations of Compound 1 were used to determine the IC50. The sample and 100 ng/ml MMP-1 enzyme (Anaspec) or MMP-3 enzyme (Anaspec) were incubated at 37° C. for 10 minutes before the addition of 2.25 μM PEPDAB008 substrate (Biozyme). The fluorescence signal was monitored at excitation of 485 nm and emission of 530 nm.

NOX = conditions: Keratinocytes
Melanocytes = assay: UVA-induced delayed formation of CPDs (dCPDs) in melanocytes; assay type: cell-based; conditions: 25 μg/ml, UVA irradiation first then product added
Procedure: (§5) A second study was carried out, similar to the first, except that this time the analysis was in assessing the efficacy, if any, of the presently taught aryl alkanones in reducing UVA-induced delayed formation of CPDs (dCPDs).

iNOS = iNOS (Homo sapiens, UniProt P35228); assay: Reduction of iNOS activity; assay type: biochemical
From the text: Accordingly, an investigation was undertaken to assess the efficacy of compounds according to the present teaching as compared to compounds that are closely structurally related thereto in inhibiting NO product.

[1] = test system: mitochondrial dehydrogenases; assay: MTT assay of cellular metabolism after UVA irradiation; assay type: cell-based; conditions: 3 hours after irradiation
Procedure: as §2, §3

MMP-3 enzyme = target: T2, MMP-3 enzyme (Homo sapiens, UniProt P08254); assay: MMP-3 inhibition; assay type: biochemical; conditions: read-out: Inhibitory concentration (IC50), MMP-3
T2 construct: purchased Anaspec
Procedure: as §4

TNS2 = assay: DNA microarray gene expression, TNS2; assay type: cell-based
From the text: as §1

Fibroblasts = assay: UVA-induced delayed formation of CPDs (dCPDs) in fibroblasts; assay type: cell-based; conditions: 25 μg/ml, product incubated for 24 hrs. plus UVA irradiation
Procedure: as §5

Collagen type 3 = assay: Collagen 3 boosting in human dermal fibroblasts; assay type: cell-based; conditions: HDF, incubation time of 6 days
Procedure: In this study, an investigation was performed in relation to the ability, if any, of the aryl alkanones to boost the production of Collagens 1, 3 and 4 proteins. The study was conducted using human fibroblasts in accordance with the method of J Dobak et at (J Dobak, J Grzybowski, F T Liu, B Landon, M Dobke, 1, 25-Dihydroxyvitamin D3 increases collagen production in dermal fibroblasts, J Dermatol Sci 1994; 8:18-24, 1994). In this study, the cells used were human dermal fibroblasts (HDF), passage 12 (Cell Applications, San Diego, Calif.) which underwent an incubation time of 6 days.

T1 sequence (P03956 100-469, species assumed): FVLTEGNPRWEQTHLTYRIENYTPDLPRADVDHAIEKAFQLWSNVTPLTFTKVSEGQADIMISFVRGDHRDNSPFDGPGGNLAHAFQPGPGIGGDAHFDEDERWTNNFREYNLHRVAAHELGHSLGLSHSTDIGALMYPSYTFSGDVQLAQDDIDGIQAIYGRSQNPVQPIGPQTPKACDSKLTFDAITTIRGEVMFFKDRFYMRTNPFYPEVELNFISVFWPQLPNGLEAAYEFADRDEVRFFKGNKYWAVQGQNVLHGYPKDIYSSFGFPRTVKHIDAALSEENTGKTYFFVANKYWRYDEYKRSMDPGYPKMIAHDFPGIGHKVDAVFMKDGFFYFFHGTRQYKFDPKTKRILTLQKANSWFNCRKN
iNOS, sequence (P35228 whole entry, species assumed): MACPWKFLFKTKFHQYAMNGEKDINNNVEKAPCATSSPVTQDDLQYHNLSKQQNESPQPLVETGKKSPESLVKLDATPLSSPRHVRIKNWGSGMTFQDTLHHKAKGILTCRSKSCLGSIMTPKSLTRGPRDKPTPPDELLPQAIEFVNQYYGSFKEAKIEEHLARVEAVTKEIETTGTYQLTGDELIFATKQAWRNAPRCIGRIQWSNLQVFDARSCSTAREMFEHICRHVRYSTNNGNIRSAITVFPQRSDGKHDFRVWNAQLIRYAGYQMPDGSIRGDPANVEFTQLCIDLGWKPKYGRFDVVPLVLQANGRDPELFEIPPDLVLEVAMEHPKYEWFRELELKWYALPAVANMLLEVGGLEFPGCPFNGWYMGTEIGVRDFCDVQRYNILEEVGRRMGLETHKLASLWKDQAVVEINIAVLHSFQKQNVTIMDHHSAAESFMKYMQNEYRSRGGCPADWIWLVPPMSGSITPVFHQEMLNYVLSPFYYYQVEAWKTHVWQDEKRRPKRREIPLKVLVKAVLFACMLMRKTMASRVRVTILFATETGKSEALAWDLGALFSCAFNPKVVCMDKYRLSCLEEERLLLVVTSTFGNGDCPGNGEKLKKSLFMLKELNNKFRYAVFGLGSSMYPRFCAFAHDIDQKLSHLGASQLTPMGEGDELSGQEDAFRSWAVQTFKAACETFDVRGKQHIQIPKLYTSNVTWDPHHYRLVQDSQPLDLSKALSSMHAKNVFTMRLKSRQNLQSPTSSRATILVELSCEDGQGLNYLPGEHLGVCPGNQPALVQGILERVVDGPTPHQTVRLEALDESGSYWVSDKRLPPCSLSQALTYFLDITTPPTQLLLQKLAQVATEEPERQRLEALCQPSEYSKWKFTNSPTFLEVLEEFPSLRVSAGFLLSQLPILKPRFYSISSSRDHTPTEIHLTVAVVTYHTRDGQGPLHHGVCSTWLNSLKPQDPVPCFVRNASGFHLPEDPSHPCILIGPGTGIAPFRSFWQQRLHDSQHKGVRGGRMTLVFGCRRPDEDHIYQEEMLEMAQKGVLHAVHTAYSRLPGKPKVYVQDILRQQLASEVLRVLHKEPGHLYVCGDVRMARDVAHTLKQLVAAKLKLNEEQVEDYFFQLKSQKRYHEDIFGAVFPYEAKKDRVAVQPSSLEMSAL
T2 sequence (P08254 100-477, species assumed): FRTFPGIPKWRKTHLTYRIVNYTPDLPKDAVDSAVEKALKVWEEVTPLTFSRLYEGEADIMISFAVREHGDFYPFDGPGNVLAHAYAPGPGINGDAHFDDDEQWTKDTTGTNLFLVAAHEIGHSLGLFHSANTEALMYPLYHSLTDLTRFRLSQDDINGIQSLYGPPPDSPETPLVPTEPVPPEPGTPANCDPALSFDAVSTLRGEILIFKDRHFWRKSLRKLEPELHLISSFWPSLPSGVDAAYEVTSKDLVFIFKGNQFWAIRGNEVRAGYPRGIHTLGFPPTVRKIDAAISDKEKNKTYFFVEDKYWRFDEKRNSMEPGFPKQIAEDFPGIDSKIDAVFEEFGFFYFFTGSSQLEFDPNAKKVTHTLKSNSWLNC

COc1cc(CC(C(C)=O)C(C)=O)ccc1O [Compound 1, Acetyl Zingerone]
Microarray, COL11A1 gene expression (COL11A1): +1.6
ATP-related chemoluminescence (% Control) (human dermal fibroblasts; 6.25 ug/ml): 94 % Control
Comments: % damage (human dermal fibroblasts; 6.25 ug/ml): Only 6%
ATP-related chemoluminescence (% Control) (human dermal fibroblasts; 12.5 ug/ml): 87 % Control
Comments: % damage (human dermal fibroblasts; 12.5 ug/ml): Only 13%
Microarray, COL3A1 gene expression (COL3A1): +1.7
Microarray, MSH6 gene expression (MSH6): +2.1
PCR array, COL6A1 gene expression (COL6A1): +1.5
Microarray, FMOD gene expression (FMOD): +1.6
Microarray, FBLN1 gene expression (FBLN1): +1.9
pIC50 (MMP-1 enzyme): 2.38
reduction of NOX activity (NOX; UVA, 25 μg/ml): −27%
reduction of NOX activity (NOX; UVA, 50 μg/ml): −38%
reduction of NOX activity (NOX; UVB, 25 μg/ml): −11%
reduction of NOX activity (NOX; UVB, 50 μg/ml): −29%
UVA/% Reduction in dCPDs vs. control, 1 hr. (Melanocytes; 1 hr.): 1 hr.: ↓70%
UVA/% Reduction in dCPDs vs. control, 2 hr. (Melanocytes; 2 hr.): 2 hr.: ↓25%
UVA/% Reduction in dCPDs vs. control, 4 hr. (Melanocytes; 4 hr.): 4 hr.: ~0%
pIC50 (iNOS): 3.71
Cell Metabolism Standardized to cell # (% Control) ([1]; 0.5 μg/ml): 123 % Control
MTT (% Control) ([1]; 0.5 μg/ml): 122 % Control
Cell Metabolism Standardized to cell # (% Control) ([1]; 2 μg/ml): 136 % Control
MTT (% Control) ([1]; 2 μg/ml): 137 % Control
Cell Metabolism Standardized to cell # (% Control) ([1]; 5 μg/ml): 174 % Control
MTT (% Control) ([1]; 5 μg/ml): 164 % Control
pIC50 (MMP-3 enzyme): 2.67
Microarray, TNS2 gene expression (TNS2): +1.7
UVA/% Reduction in dCPDs vs. control, 0 hr. (Reduction in iCPDs) (Fibroblasts; 0 hr.): ^+0 hr.: ↓45%
UVA/% Reduction in dCPDs vs. control, 1 hr. (Fibroblasts; 1 hr.): 1 hr.: ↓20%
UVA/% Reduction in dCPDs vs. control, 2 hr. (Fibroblasts; 2 hr.): 2 hr.: ↓18%
% Collagen 3 boosting (Collagen type 3; 50 μg/ml): 111%
% Collagen 3 boosting (Collagen type 3; 100 μg/ml): 146%
